Test results taken from patent publication US20090247646A1, “USE OF RESVERATROL AND DERIVATIVES THEREOF FOR PROMOTING THE WELLNESS STATE IN MAMMALS” (priority 2006, published 2009).

Test system: gene expression in heart tissue
Test: Genome-wide gene expression in heart tissue of old mice fed a resveratrol-supplemented diet (Affymetrix Mouse Genome 430 2.0 array)
Assay type: in vivo
[1] = ADP-ribosyltransferase 1, Genebank ID NM_009710
[2] = Bcl2-associated athanogene 3, Genebank ID NM_013863
[3] = DnaJ (Hsp40) homolog, subfamily A, member 3, Genebank ID AK004575
[4] = DnaJ (Hsp40) homolog, subfamily A, member 4, Genebank ID NM_021422
[5] = DnaJ (Hsp40) homolog, subfamily B, member 5, Genebank ID AI664344
[6] = DnaJ (Hsp40) homolog, subfamily B, member 10, Genebank ID NM_020266
[7] = F-box only protein 25, Genebank ID NM_025785
[8] = F-box only protein 32, Genebank ID AF441120
[9] = F-box protein 30, Genebank ID AK006369
[10] = FK506 binding protein 7, Genebank ID NM_010222
[11] = G protein-coupled receptor kinase 5, Genebank ID BC019379
[12] = Hbs1-like (S. cerevisiae), Genebank ID AK012856
[13] = Mus musculus similar to heart alpha-kinase (LOC381181), mRNA, Genebank ID AY044451
[14] = Mus musculus transcribed sequences, Genebank ID AK004331
[15] = No description found, Genebank ID BG976607
[16] = O-linked N-acetylglucosamine (GlcNAc) transferase (UDP-N-acetylglucosamine:polypeptide-N-acetylglucosaminyl transferase), Genebank ID BG065325
[17] = PTEN induced putative kinase 1, Genebank ID AF316872
[18] = Stam binding protein, Genebank ID AK019907
[19] = acid phosphatase 1, soluble, Genebank ID AW554436

Structure (SMILES): Oc1ccc(/C=C/c2cc(O)cc(O)c2)cc1 [resveratrol, 3,4′,5-Trihydroxy-trans-stilbene]
- Effect of resveratrol on changeing gene expression from old to young profile (1448825_at pyruvate dehydrogenase kinase, isoenzyme 2): >100%
- Effect of resveratrol on changeing gene expression from old to young profile (1448938_at replication protein A3): >100%
- Effect of resveratrol on changeing gene expression from old to young profile (1449116_a_at deoxythymidylate kinase): >100%
- Effect of resveratrol on changeing gene expression from old to young profile (1449334_at tissue inhibitor of metalloproteinase 3): >100%
- Effect of resveratrol on changeing gene expression from old to young profile (1450008_a_at catenin beta): >100%
- Effect of resveratrol on changeing gene expression from old to young profile (1450048_a_at vacuolar protein sorting 33B (yeast) [BLAST]): >100%
- Effect of resveratrol on changeing gene expression from old to young profile (1450634_at ATPase, H+ transporting, V1 subunit A, isoform 1): >100%
- Effect of resveratrol on changeing gene expression from old to young profile (1450720_at acid phosphatase 1, soluble): >100%
- Effect of resveratrol on changeing gene expression from old to young profile (1450899_at neural precursor cell expressed, developmentally down-regulated gene 1): >100%
- Effect of resveratrol on changeing gene expression from old to young profile (1451012_a_at cold shock domain protein A): >100%
- Effect of resveratrol on changeing gene expression from old to young profile (1451148_at PTEN induced putative kinase 1): >100%
- Effect of resveratrol on changeing gene expression from old to young profile (1451249_at DNA segment, Chr 8, ERATO Doi 812, expressed): >100%
- Effect of resveratrol on changeing gene expression from old to young profile (1452066_a_at Nedd4 family interacting protein 2): >100%
- Effect of resveratrol on changeing gene expression from old to young profile (1452767_at ribosome binding protein 1): >100%
- Effect of resveratrol on changeing gene expression from old to young profile (1452843_at interleukin 6 signal transducer): >100%
- Effect of resveratrol on changeing gene expression from old to young profile (1453124_at transportin 3): >100%
- Effect of resveratrol on changeing gene expression from old to young profile (1453129_a_at regulator of G-protein signaling 12): >100%
- Effect of resveratrol on changeing gene expression from old to young profile (1454811_a_at tumor differentially expressed 2): >100%
- Effect of resveratrol on changeing gene expression from old to young profile (1454837_at ceroid-lipofuscinosis, neuronal 6): >100%
- Effect of resveratrol on changeing gene expression from old to young profile (1454848_at protein phosphatase 1, regulatory (inhibitor) subunit 12C [BLAST]): >100%
- Effect of resveratrol on changeing gene expression from old to young profile (1454974_at syntaxin 8): >100%
- Effect of resveratrol on changeing gene expression from old to young profile (1455182_at kinesin family member 1B): >100%
- Effect of resveratrol on changeing gene expression from old to young profile (1455506_at Mus musculus transcribed sequences): >100%
- Effect of resveratrol on changeing gene expression from old to young profile (1455702_at WD repeat domain 22): >100%
- Effect of resveratrol on changeing gene expression from old to young profile (1460028_at Mus musculus transcribed sequences): >100%
- Effect of resveratrol on changeing gene expression from old to young profile (1460174_at dexamethasone-induced transcript): >100%
- Effect of resveratrol on changeing gene expression from old to young profile (1460199_a_at platelet-activating factor acetylhydrolase, isoform 1b, beta1 subunit): >100%
- % of res effect [1]: 108.0103%
- Median RES [1]: 87939
- % of res effect [2]: 131.9726%
- Median RES [2]: 67398
- % of res effect [3]: 67.85%
- Median RES [3]: 30553
- % of res effect [4]: 61.28%
- Median RES [4]: 20850
- % of res effect [5]: 157.0689%
- Median RES [5]: 17969
- % of res effect [6]: 124.1691%
- Median RES [6]: 29661
- number of genes changed by resveratrol (Effect 60-70%): 39
- number of genes changed by resveratrol (Effect 70-80%): 48
- number of genes changed by resveratrol (Effect 80-90%): 52
- number of genes changed by resveratrol (Effect 90-100%): 62
- number of genes changed by resveratrol (Effect <60%): 44
- number of genes changed by resveratrol (Effect >100% (expression in resveratrol-fed old mice as percentage of untreated young mice)): 340
- % of res effect [7]: 80.27%
- Median RES [7]: 11530
- % of res effect [8]: 104.0857%
- Median RES [8]: 35761
- % of res effect [9]: 58.67%
- Median RES [9]: 6641
- % of res effect [10]: 196.8163%
- Median RES [10]: 33928
- % of res effect [11]: 80.42%
- Median RES [11]: 37493
- % of res effect [12]: 74.36%
- Median RES [12]: 9115
- % of res effect [13]: 190.8585%
- Median RES [13]: 21847
- % of res effect [14]: 105.9%
- Median RES [14]: 38260
- % of res effect [15]: 69.74%
- Median RES [15]: 9370
- % of res effect [16]: 125.3946%
- Median RES [16]: 2989
- % of res effect [17]: 147.4853%
- Median RES [17]: 116921
- % of res effect [18]: 230.3846%
- Median RES [18]: 13590
- number of genes changed by resveratrol (Sum): 585
- % of res effect [19]: 349.7466%
- Median RES [19]: 34652
- number of genes that resembled or exceeded the expression level of the young group (among genes changed by resveratrol treatment, heart): 342
